This is an account of results in patent US5994334A, “Androgen synthesis inhibitors” (priority 1997, dated 1999).

Data set [1] concerns cytochrome P450 steroidogenic enzymes. The settings on record: human, in vivo; cited from earlier work.
Data set [2] deals with 17α-hydroxylase/C17,20-lyase. As to conditions: cited from earlier work.
The target in the next data set is C17,20-lyase. The settings on record: [3H]-progesterone substrate; read-out: IC50 C17,20-lyase (Potter et al.); cited from earlier work.
Substrate in data set [3]: CC(=O)[C@H]1CC[C@H]2[C@@H]3CCC4=CC(=O)CC[C@]4(C)[C@H]3CC[C@]12C
The data set can be described thus: Inhibition kinetics of rat 17α-hydroxylase, progesterone substrate. It is filed as biochemical. As to conditions: other: substrate.

Substrate in data set [4]: CC(=O)[C@@]1(O)CC[C@H]2[C@@H]3CCC4=CC(=O)CC[C@]4(C)[C@H]3CC[C@@]21C
The data set can be described thus: Inhibition kinetics of rat C17,20-lyase, 17α-hydroxyprogesterone substrate. In kind it is biochemical. As to conditions: other: substrate.

As to `CC(=O)N1CCN(c2ccc(OCC3COC(Cn4ccnc4)(c4ccc(Cl)cc4Cl)O3)cc2)CC1` (centres unmarked) [Ketoconazole], in data set [1], the “side-effects (in words)” value is “inhibition of several other cytochrome P450 steroidogenic enzymes, and reduction of cortisol production”. Further, the “inhibition of 17α-hydroxylase/C17,20-lyase, literature (in words)” value in data set [2] was “not very potent”. Further, the IC50 at C17,20-lyase is 26 nM.

B1: rat 17α-hydroxylase (Rattus norvegicus) (protein)
chain: MWELVGLLLLILAYFFWVKSKTPGAKLPRSLPSLPLVGSLPFLPRRGHMHVNFFKLQEKYGPIYSLRLGTTTTVIIGHYQLAREVLIKKGKEFSGRPQMVTQSLLSDQGKGVAFADAGSSWHLHRKLVFSTFSLFKDGQKLEKLICQEAKSLCDMMLAHDKESIDLSTPIFMSVTNIICAICFNISYEKNDPKLTAIKTFTEGIVDATGDRNLVDIFPWLTIFPNKGLEVIKGYAKVRNEVLTGIFEKCREKFDSQSISSLTDILIQAKMNSDNNNSCEGRDPDVFSDRHILATVGDIFGAGIETTTTVLKWILAFLVHNPEVKKKIQKEIDQYVGFSRTPTFNDRSHLLMLEATIREVLRIRPVAPMLIPHKANVDSSIGEFTVPKDTHVVVNLWALHHDENEWDQPDQFMPERFLDPTGSHLITPTQSYLPFGAGPRSCIGEALARQELFVFTALLLQRFDLDVSDDKQLPRLEGDPKVVFLIDPFKVKITVRQAWMDAQAEVST
As to B1, in data set [3], the Km was determined as 0.029 µM.

B2: rat C17,20-lyase (Rattus norvegicus) (protein)
chain: MWELVGLLLLILAYFFWVKSKTPGAKLPRSLPSLPLVGSLPFLPRRGHMHVNFFKLQEKYGPIYSLRLGTTTTVIIGHYQLAREVLIKKGKEFSGRPQMVTQSLLSDQGKGVAFADAGSSWHLHRKLVFSTFSLFKDGQKLEKLICQEAKSLCDMMLAHDKESIDLSTPIFMSVTNIICAICFNISYEKNDPKLTAIKTFTEGIVDATGDRNLVDIFPWLTIFPNKGLEVIKGYAKVRNEVLTGIFEKCREKFDSQSISSLTDILIQAKMNSDNNNSCEGRDPDVFSDRHILATVGDIFGAGIETTTTVLKWILAFLVHNPEVKKKIQKEIDQYVGFSRTPTFNDRSHLLMLEATIREVLRIRPVAPMLIPHKANVDSSIGEFTVPKDTHVVVNLWALHHDENEWDQPDQFMPERFLDPTGSHLITPTQSYLPFGAGPRSCIGEALARQELFVFTALLLQRFDLDVSDDKQLPRLEGDPKVVFLIDPFKVKITVRQAWMDAQAEVST
Regarding B2, the Km in data set [4] amounted to 0.076 µM.

A word on the IC50: it is the midpoint of a concentration-inhibition curve. A word on the Km: it is the concentration of substrate that gives half-maximal velocity.
